Results taken from patent publication US20220031871A1, “ANTIBODIES FOR CHELATED RADIONUCLIDES AND CLEARING AGENTS” (Hoffmann-La Roche Inc., priority 2018, published 2022).
Marks after values point to notes of the source that are not given here.

Legend:
LS174T tumors = experiment: Protocol 93b: efficacy and biodistribution of CEA-PRIT; assay type: in vivo, SCID mice
Procedure: The bispecific antibodies were compared side-by-side in single- and double-cycle treatment regimens.
Groups A-G represent the treated mice that were followed up for assessment of efficacy, whereas groups H-L comprise mice that were sacrificed for biodistribution purposes 24 h after their last ^212Pb-DOTAM injection.
Solid xenografts were established by subcutaneous injection of cells in RPMI (BxPC3) or DMEM (LS174T) media mixed 1:1 with Corning® Matrigel® basement membrane matrix (growth factor reduced; cat No. 354230).
For protocol 93b, mice (age 9 weeks) were injected s.c. into the right flank with 1×10^6 LS174T cells (passage 26) in 100 μl DMEM/Matrigel. Three days after tumor cell injection, mice were sorted into experimental groups with an average tumor volume of 150 mm^3.
To minimize re-ingestion of radioactive urine/feces after treatment cycle 1, cages were changed 4 hours after ^212Pb-DOTAM administration, and then again at 24 h p.i. For cycle 2, mice were placed in cages with grilled floors for 4 hours after ^212Pb-DOTAM administration, before being transferred to new cages with standard bedding. All cages were then changed at 24 h p.i., as after cycle 1. The tumor development in the mice was followed through repeated calipering three times a week. If needed, additional calipering was performed in the gaps between scheduled measurements. The body weight of the animals was measured repeatedly in the same fashion. Mice whose tumor volume reached 3000 mm^3 were immediately euthanized. Other factors taken into account for euthanasia for ethical reasons were body weight loss, tumor status (e.g. ulceration) and general appearance of the animal. Wet food was provided to all animals starting from five days after the radioactive injection if mandated by an acute loss of body weight (collective or individual) due to radiation-induced toxicity, until all individuals had recovered sufficiently.
The following organs and tissues were harvested from groups A-G at the time of euthanasia: bladder, ovaries, liver, spleen, kidneys, femur (including bone marrow), colon, jejunum, stomach, and tumor. Unexpected or abnormal conditions were noted and photographed. Tissues were immediately put in 10% neutral buffered formalin (4° C.) and then transferred to PBS (4° C.) after 5 days. The formalin-fixed samples were then shipped to Roche Pharma Research and Early Development, Roche Innovation Center Basel, for further processing and analysis.
Mice in groups H, J, and L were sacrificed and necropsied 24 hours after their first and only injection of ^212Pb-DOTAM; groups I and K were sacrificed and necropsied 24 hours after their second ^212Pb-DOTAM injection. The following organs and tissues were harvested: blood, bladder, small intestine, colon, spleen, pancreas, kidneys, liver, lung, heart, femoral bone, muscle, tail, and tumor. Collected samples were weighed and measured for radioactivity, and the percent injected dose per gram of tissue (% ID/g) subsequently calculated, including corrections for decay and background.

s.c. BxPC3 tumors = experiment: Protocol 103: efficacy, biodistribution, tolerability of CEA-PRIT; assay type: in vivo, SCID mice
Procedure: Step 1: Administration of a BsAb (i.v. or i.p.): The BsAb used in the studies binds Pb-DOTAM with high affinity and targets the tumor e.g. via CEA.
Step 2: Administration of CA (i.v. or i.p.): To allow efficient tumor accumulation of ^212Pb-DOTAM, circulating BsAb needs to be neutralized in the blood using a CA that blocks ^212Pb-DOTAM binding to unbound BsAb, without penetrating into the tumor and consequently blocking the pretargeted sites. The CA is administered once the BsAb has accumulated to a sufficient degree in the tumor, generally after 4-10 days. […]
The body weight (BW) of the study animals was measured at least 3 times per week, with additional measurements as needed depending on the health status. […]
Blood was collected at termination from the venous sinus using retro-orbital bleeding, followed by additional tissue harvest for radioactive measurements and/or histological analysis, as mandated by the protocols. […] Organs and tissues collected for biodistribution purposes were weighed and measured for radioactivity using a 2470 WIZARD^2 automatic gamma counter (PerkinElmer), and the percent injected dose per gram of tissue (% ID/g) subsequently calculated, including corrections for decay and background. […]
where d indicates treatment day and 0 the baseline value. […] Tumor regression (TR) was calculated according to: […]

[1] = labelled group 30 + 30 μCi 212Pb-DOTAM, multiple test level = 0.00238

SMILES: NC(=O)CN1CCN(CC(N)=O)CCN(CC(N)=O)CCN(CC(N)=O)CC1.[212Pb+2] [^212Pb-DOTAM]
- TGI (LS174T tumors; day 22, 30+30 μCi, compared with PBS): 64.7%
- Pairwise Log-Rank Test, survival, p vs PRIT-0175 30 + 30 μCi (LS174T tumors; [1]): 0.0090*
- Pairwise Log-Rank Test, survival, p vs PRIT-0213 30 + 30 μCi (LS174T tumors; [1]): <0.0001*
- Pairwise Log-Rank Test, survival, p vs PRIT-0213 30 μCi (LS174T tumors; [1]): <.0001*
- Pairwise Log-Rank Test, survival, p vs PRIT-0214 30 + 30 μCi (LS174T tumors; [1]): <.0001*
- Pairwise Log-Rank Test, survival, p vs PRIT-0214 30 μCi (LS174T tumors; [1]): 0.0091*
- Pairwise Log-Rank Test, survival, p vs Vehicle (PBS) (LS174T tumors; [1]): 0.0034*
- Pairwise Wilcoxon Test, survival, p vs PRIT-0175 30 + 30 μCi (LS174T tumors; [1]): 0.0417*
- Pairwise Wilcoxon Test, survival, p vs PRIT-0213 30 + 30 μCi (LS174T tumors; [1]): 0.0002*
- Pairwise Wilcoxon Test, survival, p vs PRIT-0213 30 μCi (LS174T tumors; [1]): 0.0002*
- Pairwise Wilcoxon Test, survival, p vs PRIT-0214 30 + 30 μCi (LS174T tumors; [1]): 0.0002*
- Pairwise Wilcoxon Test, survival, p vs PRIT-0214 30 μCi (LS174T tumors; [1]): 0.0160*
- Pairwise Wilcoxon Test, survival, p vs Vehicle (PBS) (LS174T tumors; [1]): 0.0111*
- BW loss (s.c. BxPC3 tumors; 10 μCi, even at multiple injections): mild
- radioactivity level tolerability (s.c. BxPC3 tumors; 30 μCi under the applied conditions): approaching the maximum tolerated activity
